Experimental data taken from patent US20170268001A1, “RNAS WITH TUMOR RADIO/CHEMO-SENSITIZING AND IMMUNOMODULATORY PROPERTIES AND METHODS OF THEIR PREPARATION AND APPLICATION” (THE UNIVERSITY OF CHICAGO, priority 2016, published 2017).

Target: T1, RIG-I (Homo sapiens, UniProt O95786, K858A/K861A)
T1 construct: HEK293 cells overexpressing either the full length RIG-I; host or cells: HEK293; HCT116 also for the qRT-PCR validation
T1 sequence (O95786 1-925 K858A/K861A): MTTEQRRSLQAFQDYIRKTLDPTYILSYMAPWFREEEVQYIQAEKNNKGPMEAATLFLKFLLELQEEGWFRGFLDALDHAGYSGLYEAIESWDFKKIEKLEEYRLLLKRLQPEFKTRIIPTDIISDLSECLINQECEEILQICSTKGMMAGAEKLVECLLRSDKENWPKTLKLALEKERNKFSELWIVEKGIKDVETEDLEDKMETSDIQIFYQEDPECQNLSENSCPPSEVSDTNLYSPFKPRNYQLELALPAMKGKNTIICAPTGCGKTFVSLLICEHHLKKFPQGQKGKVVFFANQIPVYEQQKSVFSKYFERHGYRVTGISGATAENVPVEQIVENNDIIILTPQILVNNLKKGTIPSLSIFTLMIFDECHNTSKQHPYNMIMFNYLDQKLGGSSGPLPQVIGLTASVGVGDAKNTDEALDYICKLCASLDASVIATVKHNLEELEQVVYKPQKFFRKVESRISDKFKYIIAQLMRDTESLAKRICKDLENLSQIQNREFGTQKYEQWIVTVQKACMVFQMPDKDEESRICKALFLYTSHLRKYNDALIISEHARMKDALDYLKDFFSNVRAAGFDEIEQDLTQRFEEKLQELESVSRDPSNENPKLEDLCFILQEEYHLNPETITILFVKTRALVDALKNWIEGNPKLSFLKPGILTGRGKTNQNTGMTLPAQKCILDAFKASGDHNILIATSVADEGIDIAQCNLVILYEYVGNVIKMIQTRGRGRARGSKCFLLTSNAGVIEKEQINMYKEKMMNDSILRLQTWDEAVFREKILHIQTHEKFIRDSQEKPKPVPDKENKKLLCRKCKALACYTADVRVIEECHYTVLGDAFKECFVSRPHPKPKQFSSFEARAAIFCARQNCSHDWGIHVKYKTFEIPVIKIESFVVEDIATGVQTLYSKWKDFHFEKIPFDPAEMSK
Assay: UV cross-linking with quantitative real-time PCR (CLIP-PCR) of RIG-I complexes
Assay type: binding
Method: Graphic representation indicating the distribution of non-coding and repetitive RNA molecules bound to RIG-I following exposure to IR as compared to total irradiated cellular RNA. Transcripts were mapped to reference genomes using RepeatMasker. See Methods for further details. […] Cells were UV crosslinked at 150 mJ/cm^2 48 hours post-IR treatment prior to cell lysis. […] FIG. 29H show IFN-b levels in culture supernatant from ICR RIG-I^+/+ and primary MEFs 24 hours post-stimulation with the same set of synthetic U1 oligonucleotides used in (FIG. 29G) The amount of U1 synthetic oligonucleotides used in all stimulation experiments was 1 μg. P values were determined using unpaired Student's t-test. Error bars are SEM. ***P<0.005.
Technically, identification of RNAs was performed as follows: HEK293 cells were transiently transfected with 3×FLAG-tagged full-size RIG-I in pEF-BOS vector (Addgene; Cambridge, Mass.). Twenty-four hours post-transfection, cells were either mock-irradiated or exposed to IR (6 Gy). Forty-eight hours post-IR, cells were lysed with a modified lysis buffer (50 mM Tris-Cl pH 7.5, 0.15 M NaCl, 0.1% NP-40, 1.0% Triton X-100, 1 mM EDTA pH8.0, 1 mM EGTA pH8.0, 10% Glycerol, 2.5 mM MgCl2, 1 mM DTT, 0.1 mM ATP, and 1× Halt Protease Inhibitor) and incubated on ice for 1 hour. Cell lysates were separated from cell debris by centrifugation at 12,000 rpm at 4° C. Protein concentration was measured by BCA kit. Anti-FLAG monoclonal antibody was added to the cell lysate at a 1:500 dilution, and incubated overnight at 4° C. Protein G sepharose beads were added to the lysates and incubated for at least 2 hours at 4° C. Beads containing the antibody-RIG-I complexes were washed five times in wash buffer (50 mM Tris-Cl pH 7.5, 0.15 M NaCl, 1 mM MgCl2, 0.05% NP-40, 1 mM DTT) and proteins were eluted from the beads using a soft elution buffer (0.5% SDS, 0.1% Tween-20, 50 mM Tris pH 8.0) for 10 minutes at room temperature with vortexing every 2-3 minutes. Proteinase K was added to the eluates and incubated at 50° C. for 45 minutes. Trizol reagent was then added to the solution, and RNA bound to RIG-I was purified following manufacturer's protocol. RNA quality was analyzed using an Agilent Bioanalyzer 2100 with Pico Series II cartridges. RNA yield was measured using the Qubit RNA Broad Range kit. For qRT-PCR validation experiments of RIG-I pulled down RNA, UV cross-linking (2 doses at 150 mJ/cm^2) was performed on HEK293 and HCT116 overexpressing RIG-I prior to cell lysis. The same protocol for pulldown and RNA purification experiments was performed as described above.

Molecule: U2: snRNA, SEQ ID NO:21
- levels in RIG-I pulldown after IR (HEK293 overexpressing K858A-K861A RNA binding deficient mutant RIG-I): did not detect increased levels

B1: M5: rbRNA, RIG-I agonist, 81 nucleotides, SEQ ID NO:26 (nucleic acid)
chain: GACGAAGACCACAAAACCAGATAAAAAATTATTTTTTATCTGGTTTTGTGGTCTTCGTCTATAGTGAGTCGTATTAATTTC
modifications: listed as DNA, chemistry not given here
- binding to K858A-K861A RNA binding deficient mutant RIG-I (CLIP-PCR): did not bind
